Data as given in US6552006B2, “Immunomodulatory polynucleotides in treatment of an infection by an intracellular pathogen” (The Regents of the University of California, priority 2000, dated 2003).

How the values were obtained:
[1] = system: indoleamine 2,3-dioxygenase (IDO); assay: IDO gene induction in vivo in mice, semi-quantitative RT-PCR; conditions: injection of M-ODN in mice
mBMDM = assay: Viability of mBMDM (trypan-blue exclusion); type: cell-based, mouse
Description: To examine whether treatment with ISS can stimulate macrophages to inhibit the growth of M. avium, mBMDM (5×10^4 mBMDM/well) was first treated with ISS or M-ODN for 72 hrs and then infected with M. avium. Then, cellular CFU was counted on days 1, 3, and 7 post-infection (FIG. 9A). By day 7, treatment with ISS inhibited intracellular growth of M. avium in mBMDM by 80% (p<0.001). Since viability of macrophages can affect M. avium growth, the viability of macrophages was assessed by trypan-blue exclusion. […]

M. avium [2] = assay: Growth of M. avium in vivo in C57B1/6 mice, CFU per organ; set-up: species or system Mycobacterium avium
M. avium [3] = assay: Intracellular growth of M. avium in mouse bone marrow-derived macrophages (mBMDM) in vitro, CFU assay; type: cell-based, Mycobacterium avium; conditions: for % of CFU: 10 μg/ml 72 h prior to infection, day 7, medium alone = 100%; for M. avium growth in mBMDM: L-try (final 66 μg/ml) or M-try (125 μM) alone; for reductions in the anti-mycobacterial ability of ISS treatment: M. avium-infected mBMDM cultured with L-try (66 μg/ml) or M-try (125 μM) supplemented media plus ISS
Description: A previously studied M. avium strain 13 (Hayashi, et al. (1999) Infect. Immun. 67:3558-3565; Meylan, et al. (1990) Infect. Immun. 58:2564-2568), isolated from an AIDS patient at UCSD, San Diego, Calif., was used in all experiments. The organism was cultured on Middlebrook 7H11 agar (Difco Laboratories, Detroit, Mich.) with OADC enrichment at 37° C. in the presence of 5% CO2 for two weeks. Transparent colonies were selectively picked and further cultured on Middlebrook 7H11 plates for two more weeks. The resulting colonies, which were predominantly transparent (>90%), were then collected and washed two times with phosphate-buffered saline (PBS). The bacteria were finally resuspended in Middlebrook 7H9 broth (Difco Laboratories) and the OD600 of the suspension was adjusted to 0.15-0.2. The suspension was aliquoted and stored at −70° C. until use. The number of organisms/ml of this suspension was determined by the colony forming unit (CFU) assay.
The number of CFU in a given sample was determined by colony counting as described previously (Ogata, et al. (1992) Infect. Immun. 60:4720-4725). Serial 10-fold dilutions of total cell lysates or tissue homogenates were performed in PBS. 10 μl of each dilution were plated on Middlebrook 7H11 plates supplemented with OADC enrichment. The plates were incubated up to 14 days at 37° C. The number of colonies was counted every alternate day from day 10 onwards until no new colonies appeared. This yielded the number of CFU/10 μl. The number of CFU in each well was then calculated.
Preparation of Murine Macrophages. Mouse bone marrow-derived macrophages (mBMDM) were prepared from mouse bone marrow using L-cell conditioned media, as described in Martin-Orozco, et al. (1999) […] 11:1111-1118.
Alternatively, 5×10^4 mBMDM or hMDM was treated with ISS for 3 days before infection. Macrophages treated with M-ODN or with media alone served as controls. After 3 days, the cells were infected for 2 hrs with M. avium at a macrophage:bacteria ratio of 2:1 for mBMDM or of 1:10 for hMDM, and subsequently cultured in fresh media without antibiotics. To examine attachment and/or invasion of M. avium, the macrophages were lysed immediately after washing, and the number of bacteria were enumerated by the CFU assay. Intracellular growth of M. avium was determined on days 1, 3, and 7 after infection. To account for all the mycobacteria in each group, corresponding lysates were combined and then the number of CFU was determined. To examine the efficacy of anti-mycobacterial treatments, CFU recovered from cells treated with medium alone were considered as 100% growth.
To determine whether treatment with ISS after infection alters M. avium growth, adherent cells were first infected with M. avium for 2 hrs and then these cells were cultured with fresh media containing ISS. Infected cells treated with M-ODN or medium alone served as controls. At day 7, intracellular growth of M. avium was assessed by CFU assay.

L. major = conditions: BALB/c mice; injection four hours after inoculation with live L. major promastigotes; cited from earlier work
[4] = C57B1/6 mice, 10^7 CFU i.v., treatment from one week after infection, CLA 200 mg/kg alone, 5 weeks after infection

Compound: 5′-TGACTGTGAAGGTTAGAGATGA-3′ (SEQ ID NO:3) (chemistry not given here) [M-ODN, mutated control oligodeoxynucleotide with 2 base alteration of the CpG motif]
- induction of IDO after injection [1]: did not result in any detectable induction of IDO
- viable mBMDM (mBMDM): > 90%
- CFU in the spleen and lungs compared with control (PBS) mice (M. avium [2]; 10^7 organisms/mouse, four weeks after infection): similar
- % of CFU (M. avium [3]; mBMDM from IFN-αR−/− 129S6/SvEv): 106.9 ± 11.9%
- % of CFU (M. avium [3]; mBMDM from IFN-γR−/− 129S6/SvEv): 108.1 ± 10.8%
- % of CFU (M. avium [3]; mBMDM from IL-12 p40−/− C57B1/6): 117.6 ± 9.2%
- % of CFU (M. avium [3]; mBMDM from INOS−/− C57B1/6): 105.0 ± 13.9%
- % of CFU (M. avium [3]; mBMDM from NADPH oxidase−/− (gp91 phox−/−) C57B1/6): 107.0 ± 15.5%
- % of CFU (M. avium [3]; mBMDM from TNF-α−/− C57B1/6): 120.0 ± 20.0%
- % of CFU (M. avium [3]; mBMDM from Wild type 129S6/SvEV): 110.0 ± 15.9%
- % of CFU (M. avium [3]; mBMDM from Wild type C57B1/6): 117.2 ± 18.5%

Compound: Cn1cc(CC(N)C(=O)O)c2ccccc21 (racemic) [M-try, 1-methyl-DL-tryptophan]
- viability of mBMDM (mBMDM; L-try (final 66 μg/ml) or M-try (125 μM) alone): did not alter
- M. avium growth in mBMDM (M. avium [3]): did not alter
- reductions in the anti-mycobacterial ability of ISS treatment (M. avium [3]): 4 fold

Compound: CC[C@H]1OC(=O)[C@H](C)[C@@H](O[C@H]2C[C@@](C)(OC)[C@@H](O)[C@H](C)O2)[C@H](C)[C@@H](O[C@@H]2O[C@H](C)C[C@H](N(C)C)[C@H]2O)[C@](C)(OC)C[C@@H](C)C(=O)[C@H](C)[C@@H](O)[C@]1(C)O [CLA, Clarithromycin, reference compound]
- decrease of bacterial growth in the liver (M. avium [2]; [4]): 4 log
- decrease of bacterial growth in the lungs (M. avium [2]; [4]): 1.5 log
- decrease of bacterial growth in the spleen (M. avium [2]; [4]): 4 log
- reduction of bacterial growth in mBMDM (M. avium [3]; mBMDM infected first, then treated, ISS 10 μg/ml, CLA 0.1 μg/ml, 7 days after infection, compared to medium alone): 84%

Compound: N[C@@H](Cc1c[nH]c2ccccc12)C(=O)O [L-try, L-tryptophan]
- M. avium growth in mBMDM (M. avium [3]): did not alter
- reductions in the anti-mycobacterial ability of ISS treatment (M. avium [3]): 4 fold

Compound: CpG-ODN 1826
- animals protected from progressive infection (L. major): 65%
